Assay results taken from US20100298141A1, “SUBSTITUTED PYRIDINE N-OXIDE HERBICIDES” (E. I. DU PONT DE NEMOURS AND COMPANY, priority 2007, published 2010).

Assays:
rice = assay: Test C flooded paddy test; format: in vivo, Oryza sativa; details: Flood
Procedure, shortened: (§1)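 Compound was added to standing water 3 cm above soil, flood maintained, and plants held in a greenhouse before visual scoring against controls at 13 to 15 days.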

pigweed = assay: Test C pre-/postemergence test; format: in vivo, Amaranthus retroflexus
Source text: (§2) Seeds of plant species selected from blackgrass (Alopecurus myosuroides), downy brome (Bromus tectorum), green foxtail (Setaria viridis), Italian ryegrass (Lolium multiflorum), wheat (Triticum aestivum), wild oat (Avena fatua), catchweed bedstraw (Galium aparine), Russian thistle (Salsola kali), […] (Cynodon dactylon), Surinam grass (Brachiaria decumbens), cocklebur (Xanthium strumarium), corn (Zea mays), crabgrass (Digitaria sanguinalis), woolly cupgrass (Eriochloa villosa), giant foxtail (Setaria faberii), Goosegrass (Eleusin indica), johnsongrass (Sorghum halepense), kochia (Kochia scoparia), lambsquarters (Chenopodium album), morningglory (Ipomoea coccinea), eastern black nightshade (Solanum ptycanthum), yellow nutsedge (Cyperus esculentus), pigweed (Amaranthus retroflexus), common ragweed (Ambrosia elation), soybean (Glycine max), common (oilseed) sunflower (Helianthus annuus), and velvetleaf (Abutilon theophrasti) were planted and treated preemergence with test chemicals formulated in a non-phytotoxic solvent mixture which included a surfactant. At the same time, plants selected from these crop and weed species and also winter barley (Hordeum vulgare), canarygrass (Phalaris minor), and chickweed (Stellaria media) were treated with postemergence applications of some of the test chemicals formulated in the same manner. Plants ranged in height from 2 to 18 cm (1- to 4-leaf stage) for postemergence treatments. […] At time of treatment, test pots were flooded to 3 cm above the soil surface, treated by application of test compounds directly to the paddy water, and then maintained at that water depth for the duration of the test. […] A dash (-) response means no test result.

barnyardgrass = assay: Test C flooded paddy test; format: in vivo, Echinochloa crus-galli; details: Flood
Procedure, shortened: as §1

redroot pigweed = assay: Test A pre-/postemergence greenhouse test; format: in vivo, Amaranthus retroflexus; details: for Plant response rating, Pigweed: 0 to 100 scale where 0 is no effect and 100 is complete control; for Pigweed plant response rating: 0 to 100 scale
Procedure, shortened: (§3)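 Pots of loam–sand soil sown with the test species are sprayed preemergence on the soil surface; emerged seedlings (1–2 leaves, 2–10 cm) are sprayed postemergence at the same time. The vehicle is a non-phytotoxic solvent mixture with surfactant. Injury is scored visually after ~10 d in greenhouse.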

bermudagrass = assay: Test C pre-/postemergence test; format: in vivo, Cynodon dactylon
Source text: as §2

crabgrass = assay: Test C pre-/postemergence test; format: in vivo, Digitaria sanguinalis
Source text: as §2

wild oat = assay: Test C pre-/postemergence test; format: in vivo, Avena fatua
Source text: as §2

velvetleaf = assay: Test C pre-/postemergence test; format: in vivo, Abutilon theophrasti
Source text: as §2

corn = assay: Test A pre-/postemergence greenhouse test; format: in vivo, Zea mays; details: for Plant response rating, Corn: 0 to 100 scale where 0 is no effect and 100 is complete control; for Corn plant response rating: 0 to 100 scale
Procedure, shortened: as §3

wheat = assay: Test C pre-/postemergence test; format: in vivo, Triticum aestivum
Source text: as §2

[1] = tested on: common (oilseed) sunflower; assay: Test C pre-/postemergence test; format: in vivo, Helianthus annuus
Source text: as §2

Surinam grass = assay: Test C pre-/postemergence test; format: in vivo, Brachiaria decumbens
Source text: as §2

blackgrass = assay: Test C pre-/postemergence test; format: in vivo, Alopecurus myosuroides
Source text: as §2

duck salad = assay: Test C flooded paddy test; format: in vivo, Heteranthera limosa; details: Flood
Procedure, shortened: as §1

kochia = assay: Test C pre-/postemergence test; format: in vivo, Kochia scoparia
Source text: as §2

[2] = 62 g ai/ha, scale 0 to 100 (0 no effect, 100 complete control)
[3] = 250 g ai/ha, scale 0 to 100, 0 no effect, 100 complete control, 13 to 15 days
[4] = 62 g ai/ha, Preemergence, scale 0 to 100
[5] = Postemergence, 125 g ai/ha, scale 0 to 100, 0 no effect, 100 complete control
[6] = Postemergence, 250 g ai/ha, scale 0 to 100, 0 no effect, 100 complete control
[7] = Preemergence, 31 g ai/ha, scale 0 to 100 (0 no effect, 100 complete control)
[8] = preemergence, 250 g ai/ha, scale 0 (no effect) to 100 (complete control)
[9] = Postemergence, 500 g ai/ha, 0 is no effect, 100 is complete control
[10] = Preemergence, 125 g ai/ha, 0 no effect, 100 complete control
[11] = 125 g ai/ha, preemergence, scale 0 (no effect) to 100 (complete control)
[12] = Postemergence, 62 g ai/ha, scale 0 to 100, 0 no effect, 100 complete control

CCn1nc(C(F)(F)F)c(C[S+]([O-])c2cccc[n+]2[O-])c1OCC(F)(F)F (racemic) [Compound 65]
Plant response rating, Rice (rice; [2]): 0 | Plant response rating, Rice (rice; [3]): 45 | Pigweed plant response rating (pigweed; [4]): 85 | Plant response rating (0 to 100), Pigweed (pigweed; Postemergence, 31 g ai/ha): 0 | Plant response rating (0 to 100), Pigweed (pigweed; Postemergence, 62 g ai/ha): 0 | Plant response rating, Pigweed (pigweed; [5]): 0 | Plant response rating, Pigweed (pigweed; [6]): 5 | Plant response rating, Pigweed (pigweed; [7]): 85 | Pigweed plant response rating (pigweed; [8]): 100 | Plant response rating, Barnyardgrass (barnyardgrass; [2]): 55 | Plant response rating, Barnyardgrass (barnyardgrass; [3]): 85 | Plant response rating, Pigweed (redroot pigweed; Postemergence, 125 g ai/ha): 80 | Pigweed plant response rating (redroot pigweed; [9]): 90 | Pigweed plant response rating (redroot pigweed; [10]): 100 | Plant response rating, Pigweed (redroot pigweed; Preemergence, 500 g ai/ha): 100 | Bermudagrass plant response rating (bermudagrass; 62 g ai/ha, Preemergence, scale 0 to 100 (0 no effect, 100 complete control)): 100 | Bermudagrass plant response rating (bermudagrass; [11]): 100 | Plant response rating (0 to 100), Bermudagrass (bermudagrass; Postemergence, 31 g ai/ha): 0 | Plant response rating, Bermudagrass (bermudagrass; [12]): 0 | Plant response rating, Bermudagrass (bermudagrass; [5]): 70 | Plant response rating, Bermudagrass (bermudagrass; [6]): 90 | Plant response rating, Bermudagrass (bermudagrass; [7]): 100 | Bermudagrass plant response rating (bermudagrass; [8]): 100 | Crabgrass, Large plant response rating (crabgrass; [4]): 100 | Crabgrass, Large plant response rating (crabgrass; [11]): 100 | Plant response rating (0 to 100), Crabgrass, Large (crabgrass; Postemergence, 31 g ai/ha): 0 | Plant response rating, Crabgrass, Large (crabgrass; [12]): 0 | Plant response rating, Crabgrass, Large (crabgrass; [5]): 0 | Plant response rating, Crabgrass, Large (crabgrass; [6]): 60 | Plant response rating, Crabgrass, Large (crabgrass; [7]): 60 | Crabgrass, Large plant response rating (crabgrass; [8]): 100 | Oat, Wild plant response rating (wild oat; [4]): 98 | Oat, Wild plant response rating (wild oat; [11]): 98 | Plant response rating (0 to 100), Oat, Wild (wild oat; Postemergence, 31 g ai/ha): 0 | Plant response rating, Oat, Wild (wild oat; [12]): 40 | Plant response rating, Oat, Wild (wild oat; [5]): 80 | Plant response rating, Oat, Wild (wild oat; [6]): 85 | Plant response rating, Oat, Wild (wild oat; [7]): 85 | Oat, Wild plant response rating (wild oat; [8]): 100 | Velvetleaf plant response rating (velvetleaf; [4]): 60 | Velvetleaf plant response rating (velvetleaf; [11]): 100 | Plant response rating (0 to 100), Velvetleaf (velvetleaf; Postemergence, 31 g ai/ha): 0 | Plant response rating (0 to 100), Velvetleaf (velvetleaf; Postemergence, 62 g ai/ha): 0 | Plant response rating, Velvetleaf (velvetleaf; [5]): 30 | Plant response rating, Velvetleaf (velvetleaf; [6]): 40 | Plant response rating, Velvetleaf (velvetleaf; [7]): 55 | Velvetleaf plant response rating (velvetleaf; [8]): 100 | Plant response rating, Corn (corn; Postemergence, 125 g ai/ha): 70 | Corn plant response rating (corn; [9]): 80 | Corn plant response rating (corn; [10]): 40 | Plant response rating, Corn (corn; Preemergence, 500 g ai/ha): 80 | Wheat plant response rating (wheat; [4]): 80 | Wheat plant response rating (wheat; [11]): 100 | Plant response rating (0 to 100), Wheat (wheat; Postemergence, 31 g ai/ha): 0 | Plant response rating (0 to 100), Wheat (wheat; Postemergence, 62 g ai/ha): 0 | Plant response rating, Wheat (wheat; [5]): 25 | Plant response rating, Wheat (wheat; [6]): 30 | Plant response rating, Wheat (wheat; [7]): 50 | Wheat plant response rating (wheat; [8]): 100 | Sunflower plant response rating [1, 4]: 50 | Sunflower plant response rating [1, 11]: 100 | Plant response rating, Sunflower [1, 7]: 45 | Surinam Grass plant response rating (Surinam grass; [4]): 100 | Surinam Grass plant response rating (Surinam grass; [11]): 100 | Plant response rating (0 to 100), Surinam Grass (Surinam grass; Postemergence, 31 g ai/ha): 0 | Plant response rating (0 to 100), Surinam Grass (Surinam grass; Postemergence, 62 g ai/ha): 0 | Plant response rating, Surinam Grass (Surinam grass; [5]): 0 | Plant response rating, Surinam Grass (Surinam grass; [6]): 25 | Plant response rating, Surinam Grass (Surinam grass; [7]): 80 | Surinam Grass plant response rating (Surinam grass; [8]): 100 | Blackgrass plant response rating (blackgrass; [4]): 100 | Blackgrass plant response rating (blackgrass; [11]): 100 | Plant response rating (0 to 100), Blackgrass (blackgrass; Postemergence, 31 g ai/ha): 0 | Plant response rating, Blackgrass (blackgrass; [12]): 30 | Plant response rating, Blackgrass (blackgrass; [6]): 30 | Plant response rating, Blackgrass (blackgrass; [7]): 100 | Blackgrass plant response rating (blackgrass; [8]): 100 | Plant response rating, Ducksalad (duck salad; [2]): 30 | Plant response rating, Ducksalad (duck salad; [3]): 100 | Kochia plant response rating (kochia; [4]): 100 | Kochia plant response rating (kochia; [11]): 100 | Plant response rating (0 to 100), Kochia (kochia; Postemergence, 31 g ai/ha): 0 | Plant response rating, Kochia (kochia; [12]): 0 | Plant response rating, Kochia (kochia; [5]): 0 | Plant response rating, Kochia (kochia; [6]): 0 | Plant response rating, Kochia (kochia; [7]): 100 | Kochia plant response rating (kochia; [8]): 100
